Test results taken from patent US20250049799A1, “Targeted Therapy of Pyrrolo[2,3-D]Pyrimidine Antifolates in a Syngeneic Mouse Model of High Grade Serous Ovarian Cancer” (Duquesne University of The Holy Spirit, priority 2021, published 2025).
Like-named read-outs stand apart in the source and are kept apart here.

Legend:
[1] = target: FRβ (Homo sapiens, UniProt P14207); settings: comparison of Table 3 values with PMX
[2] = test system: BR-Luc mouse HGSOC tumor cells; experiment: Cell proliferation assay (CellTiter-blue, 96 h), BR-Luc cells; format: cell-based
Protocol: (§1) Results with BR-5 and BR-Luc cells were compared to those for IGROV1 human EOC cells (Table 1) in the absence and presence of excess folic acid (200 nM), which selectively blocks FR-mediated drug uptake without effects on RFC or PCFT^6. […] Further, inhibitions of the murine EOCs by all compounds approximated those for IGROV1 human EOC cells.
(§2) Cell proliferation assays were performed as described^6, 21. Cells were plated in 96-well dishes at densities ranging from 2500-5000 cells/well in 200 μL media and treated with a range of inhibitors spanning 0-1000 nM. Experiments used BR-5 and BR-Luc cells and folate-free RPMI 1640 media with 10% dialyzed FBS and 100 units/mL penicillin/100 μg/mL streptomycin, supplemented with 25 nM leucovorin and 2 mM L-glutamine. FR-mediated drug uptake was assessed in parallel incubations including 200 nM folic acid. Cells were treated over a 96 h period at 37° C. with 5% CO2 and relative cell numbers were quantified using the CellTiter-blue cell viability assay (Promega, Madison, WI) and a fluorescence plate reader^21. Raw data were exported to Excel for analysis and the results plotted using Graphpad Prism 6.0.

[3] = test system: BR-5 mouse HGSOC tumor cells; experiment: Cell proliferation assay (CellTiter-blue, 96 h), BR-5 cells; format: cell-based
Protocol: as §1, §2

[4] = test system: IGROV1 human EOC cells; experiment: Cell proliferation assay, IGROV1 cells; format: cell-based
Protocol: as §1, §2

FRβ, sequence (P14207 17-230): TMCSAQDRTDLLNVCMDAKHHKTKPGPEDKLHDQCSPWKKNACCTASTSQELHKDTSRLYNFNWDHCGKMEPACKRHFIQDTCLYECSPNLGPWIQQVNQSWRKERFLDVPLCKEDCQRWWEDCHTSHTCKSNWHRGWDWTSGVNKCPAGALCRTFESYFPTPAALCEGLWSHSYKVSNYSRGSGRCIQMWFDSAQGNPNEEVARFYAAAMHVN

Nc1nc2[nH]c(CCCCc3ccc(C(=O)N[C@@H](CCC(=O)O)C(=O)O)nc3)cc2c(=O)[nH]1 [Compound 4]
Transport by folate receptor beta compared with pemetrexed (PMX) [1]: at least ten times better transported

Nc1nc2[nH]c(CCCCc3csc(C(=O)N[C@@H](CCC(=O)O)C(=O)O)c3)cc2c(=O)[nH]1 [Compound 5]
Transport by folate receptor beta compared with pemetrexed (PMX) [1]: at least ten times better transported

N.N.[Cl][Pt][Cl] [Cisplatin, reference compound]
IC50 ([2]; no folic acid, folate-free RPMI1640, 25 nM leucovorin, mean ± SE, read-out: IC50 anti-proliferative activity BR-Luc, No addition): 290 ± 170 nM
IC50 ([3]; no folic acid, mean ± SE, read-out: IC50 anti-proliferative activity BR-5, No addition): 160 ± 110 nM
IC50 ([4]; no folic acid, mean ± SE, read-out: IC50 anti-proliferative activity IGROV1, No addition): 857 ± 62.3 nM

Nc1nc2[nH]c(CCCCc3ccc(C(=O)N[C@@H](CCC(=O)O)C(=O)O)cc3)cc2c(=O)[nH]1 [Compound 2]
Transport by folate receptor beta compared with pemetrexed (PMX) [1]: at least ten times better transported

Nc1nc2[nH]c(CCCCc3ccc(C(=O)N[C@@H](CCC(=O)O)C(=O)O)c(F)c3)cc2c(=O)[nH]1 [Compound 8]
Transport by folate receptor beta compared with pemetrexed (PMX) [1]: at least ten times better transported

Nc1nc2[nH]c(CCCc3ccc(C(=O)N[C@@H](CCC(=O)O)C(=O)O)s3)cc2c(=O)[nH]1 [Compound 1]
Transport by folate receptor beta compared with pemetrexed (PMX) [1]: at least ten times better transported

Nc1nc2[nH]c(CCCCc3cnc(C(=O)N[C@@H](CCC(=O)O)C(=O)O)c(F)c3)cc2c(=O)[nH]1 [Compound 10]
Transport by folate receptor beta compared with pemetrexed (PMX) [1]: at least ten times better transported

Nc1nc2[nH]c(CCCCc3csc(C(=O)N[C@@H](CCC(=O)O)C(=O)O)c3F)cc2c(=O)[nH]1 [AGF278]
IC50 ([2]; Mus musculus, no folic acid, folate-free RPMI1640, 25 nM leucovorin, mean ± SE, read-out: IC50 anti-proliferative activity BR-Luc, No addition): 6.06 ± 3.12 nM
IC50 ([2]; Mus musculus, read-out: IC50 anti-proliferative activity BR-Luc, Folic Acid (200 nM), with 200 nM folic acid, mean ± SE): 588 ± 162 nM
IC50 ([3]; Mus musculus, no folic acid, mean ± SE, read-out: IC50 anti-proliferative activity BR-5, No addition): 6.55 ± 3.24 nM
IC50 ([3]; Mus musculus, read-out: IC50 anti-proliferative activity BR-5, Folic Acid (200 nM), with 200 nM folic acid, mean ± SE): 547 ± 188 nM
IC50 ([4]; Homo sapiens, IGROV-1, no folic acid, mean ± SE, read-out: IC50 anti-proliferative activity IGROV1, No addition): 1.9 ± 0.15 nM
IC50 ([4]; Homo sapiens, IGROV-1, read-out: IC50 anti-proliferative activity IGROV1, Folic Acid (200 nM), with 200 nM folic acid, mean ± SE): 426 ± 152 nM
Transport by folate receptor beta compared with pemetrexed (PMX) [1]: at least ten times better transported
